Test results published in patent US20220324851A1, “AMINE-SUBSTITUTED HETEROCYCLIC COMPOUNDS AS EHMT2 INHIBITORS, SALTS THEREOF, AND METHODS OF SYNTHESIS THEREOF” (Epizyme, Inc., priority 2017, published 2022).
Where a name gives a salt, the structure may show the parent alone.

Legend:
Format in all cases: physicochemical
[1] = DVS water uptake / hygroscopicity; conditions: for hygroscopicity (in words): conclusion from DVS where run
[2] = XRPD before and after DVS (form change); conditions: state of sample post DVS
[3] = stressing at 40° C./75% RH (form change)
[4] = appearance under ambient condition; conditions: wet solid under ambient condition; not tested by TGA/DSC

| SMILES | water uptake (DVS) ([1]; at 25° C./80% RH) [%] | hygroscopicity (in words) [1] | form change after DVS [2] | water uptake (DVS) ([1]; from 0% to 80% RH) | water uptake (DVS) ([1]; from 50% RH to 80% RH at 25° C.) | form change after stressing [3] | hygroscopicity (in words) [4] |
| --- | --- | --- | --- | --- | --- | --- | --- |
| CNc1cc(C)nc(Nc2cnc(OC)c(OC[C@@H]3CCN(C)C3)c2)n1 [Compound 1R Hydrochloride Salt Type A] | ~8 | hygroscopic | No change in XRPD pattern | – | – | – | – |
| CNc1cc(C2CCOCC2)c2cc(OC)c(OCCCN3CCCC3)cc2n1 [Compound 2 Freebase Type A] | – | slightly hygroscopic | No form change | around 1.0% | – | – | – |
| CNc1cc(C)nc(Nc2ccc(OC)c(OC[C@H](O)CN3CCCC3)c2)n1 [Compound 4R Freebase Type C] | – | hygroscopic | No form change | around 8.7% | – | – | – |
| CNc1cc(C)nc(Nc2ccc(OC)c(OC[C@H](O)CN3CCCC3)c2)n1 [Compound 4R Hydrochloride Salt Type A] | – | hygroscopic | change of XRPD pattern was observed | – | around 4% | – | – |
| CNc1cc(C)nc(Nc2ccc(OC)c(OC[C@H](O)CN3CCCC3)c2)n1 [Compound 4R Hydrochloride Salt Type B] | – | very hygroscopic | No form change | around 17.4% | – | – | – |
| CNc1cc(C)nc(Nc2ccc(OC)c(OC[C@H](O)CN3CCC3)c2)n1 [Compound 5R Fumarate Salt Type A] | 7.6 | hygroscopic | No significant form change | – | – | – | – |
| CNc1cc(C)nc(Nc2ccc(OC)c(OC[C@H](O)CN3CCC3)c2)n1 [Compound 5R Gentisate Salt Type E] | – | – | – | – | – | No form change | – |
| CNc1cc(C)nc(Nc2ccc(OC)c(OC[C@H](O)CN3CCC3)c2)n1 [Compound 5R Hippurate Salt Type A] | 2.6 | hygroscopic | No significant form change | – | – | – | – |
| CNCc1cnn(-c2cc(Nc3nc(C)cc(NC)n3)ccc2OC)c1 [Compound 6 Adipate Salt Type B] | – | hygroscopic | form change from Compound 6 Adipate Salt Type B to Compound 6 Adipate Salt Type A | around 8.8% | – | – | – |
| CNCc1cnn(-c2cc(Nc3nc(C)cc(NC)n3)ccc2OC)c1 [Compound 6 Glycolate Salt Type A] | – | – | – | – | – | – | high hygroscopicity |
| CNCc1cnn(-c2cc(Nc3nc(C)cc(NC)n3)ccc2OC)c1 [Compound 6 Hydrochloride Salt Type A] | – | very hygroscopic | Form change was observed | around 19.4% | – | – | – |
| CNCc1cnn(-c2cc(Nc3nc(C)cc(NC)n3)ccc2OC)c1 [Compound 6 freebase Type A] | – | hygroscopic | No form change | around 4.4% | – | – | – |
| CNCc1cnn(-c2c(OC)ccc(Nc3nc(C)cc(NC)n3)c2F)c1 [Compound 7 Fumarate Salt Type A] | – | low hygroscopicity | – | – | – | – | – |
| CNCc1cnn(-c2c(OC)ccc(Nc3nc(C)cc(NC)n3)c2F)c1 [Compound 7 Fumarate Salt Type C] | – | – | – | around 1.9% | – | – | – |

Further lines, results first:

| water uptake (DVS) ([1]; at 25° C./80% RH) [%] | hygroscopicity (in words) [1] | form change after DVS [2] | water uptake (DVS) ([1]; from 0% to 80% RH) | water uptake (DVS) ([1]; from 50% RH to 80% RH at 25° C.) | form change after stressing [3] | hygroscopicity (in words) [4] | SMILES |
| --- | --- | --- | --- | --- | --- | --- | --- |
| – | hygroscopic | No form change | around 12.9% | – | – | – | CNc1cc(C)nc(Nc2ccc(OC)c(CNCCN3CCCC3)c2)n1 [Compound 3 Freebase Type A] |
| – | – | deliquescence | around 45.3% | – | – | – | CNc1cc(C)nc(Nc2ccc(OC)c(CNCCN3CCCC3)c2)n1 [Compound 3 Glycolate Salt Type B] |
| – | – | new hydrate form | – | – | – | – | CNc1cc(C)nc(Nc2ccc(OC)c(CNCCN3CCCC3)c2)n1 [Compound 3 Hydrochloride Salt Type A] |
| 15.3 | hygroscopic | change of XRPD pattern was observed | – | – | – | – | CNc1cc(C)nc(Nc2ccc(OC)c(CNCCN3CCCC3)c2)n1 [Compound 3 Hydrochloride Salt Type B] |
| 20.5 | highly hygroscopic | No significant form change | – | – | – | – | CNc1cc(C)nc(Nc2ccc(OC)c(CNCCN3CCCC3)c2)n1 [Compound 3 Sulfate Sate Type A] |
| – | hygroscopic | No form change | around 9.6% | – | – | – | CNc1cc(C)nc(Nc2ccc(OC)c(OC[C@H](O)CN3CCCC3)c2)n1 [Compound 4R Succinate Salt Type A] |
